From PubChem BioAssay (NCI)
“And” between values parts separate entries of the source, which are not always exact repeats. Equal entries are not always repeated.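 Test compounds were applied to cells in 96-well plates for 48 hours at 5 doses. GI50 = concentration required for 50% inhibition of growth. TGI: total growth inhibition.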

Experiments:
Experiment in all cases: growth of human tumour cells (NCI), 48 h
EKVX NSCLC = system: EKVX NSCLC
SK-MEL-5 melanoma = system: SK-MEL-5 melanoma
NCI-H522 lung = system: NCI-H522 lung
NCI-H23 lung = system: NCI-H23 lung
HCT-116 colon = system: HCT-116 colon
MCF7 breast = system: MCF7 breast
HOP-62 NSCLC = system: HOP-62 NSCLC
CAKI-1 renal = system: CAKI-1 renal
A498 renal = system: A498 renal
UO-31 renal = system: UO-31 renal

SMILES | GI50 (EKVX NSCLC) | TGI (EKVX NSCLC) | GI50 (SK-MEL-5 melanoma) | TGI (SK-MEL-5 melanoma) | GI50 (NCI-H522 lung) | TGI (NCI-H522 lung) | GI50 (NCI-H23 lung) | TGI (NCI-H23 lung) | GI50 (HCT-116 colon) | TGI (HCT-116 colon) | GI50 (MCF7 breast) | TGI (MCF7 breast) | GI50 (HOP-62 NSCLC) | TGI (HOP-62 NSCLC) | GI50 (CAKI-1 renal) | TGI (CAKI-1 renal) | GI50 (A498 renal) | TGI (A498 renal) | GI50 (UO-31 renal) | TGI (UO-31 renal)
NS(=O)(=O)c1ccc(N=Nc2c(O)[nH]c3ccc(C(=O)NCc4ccncc4)cc23)cc1 | > 25000 nM | > 25 µM | > 25000 nM | > 25 µM | > 25000 nM | > 25 µM | > 25000 nM | > 25 µM | > 25000 nM | > 25 µM | > 25000 nM | > 25 µM | > 25000 nM | > 25 µM | > 25000 nM | > 25 µM | > 25000 nM | > 25 µM | > 25000 nM | > 25 µM
CN(C)CCNC(=O)c1ccc(-c2nc3ccc4[nH]ncc4c3c3c2C2CCC3C2)cc1 (stereo not drawn) | 1720 nM | 6.91 µM | 1490 nM | 4.57 µM | 1250 nM | 4.33 µM | 1630 nM | 5.94 µM | 432 nM | 9.13 µM | 889 nM | 6.7 µM | 1290 nM | 5.7 µM | 930 nM | 5.25 µM | 220 nM | 1.22 µM | 2030 nM | 5.18 µM
c1cc(-c2nnc(SSc3ncnc4nc[nH]c34)o2)ccn1 | 24400 nM | > 100 µM | 3460 nM | > 100 µM | 1630 nM | > 100 µM | 2730 nM | > 100 µM | 2000 nM | > 100 µM | 419 nM | > 100 µM | 2520 nM | > 100 µM | 472 nM | 5.17 µM | 4610 nM | > 100 µM | 742 nM | > 100 µM
O=[N+]([O-])c1nccn1CC(O)CN1CCCCC1 (stereo not drawn) |  | > 100 µM |  | > 100 µM |  | > 100 µM |  | > 100 µM |  | > 100 µM |  | > 100 µM |  | > 100 µM |  | > 100 µM |  | > 100 µM |  | > 100 µM
CC[C@@]1(OC(=O)CN)C(=O)OCc2c1cc1n(c2=O)Cc2c-1nc1cc3c(cc1c2CCl)OCO3 | 1840 nM | 26.5 µM | < 11.8 nM | 0.5 µM | 25.7 nM | 2.19 µM | < 10 nM | 0.0885 µM | < 10 nM | > 100 µM | < 10 nM | 12.6 µM | < 10 nM |  | < 10 nM | 1.98 µM | 66.1 nM | 1.24 µM | < 10 nM | 1.44 µM
COC(=O)C(CCC(=O)CCl)N1C(=O)c2ccccc2C1=O (stereo not drawn) |  | 35.3 µM |  | 16.1 µM |  | 4.06 µM |  | 22.8 µM |  | 14.5 µM |  | 18.5 µM |  | 29 µM |  | 26.7 µM |  | 36.6 µM |  | 24.2 µM
CC1CN(S(=O)(=O)c2oc(-c3ccc(Cl)cc3)nc2C#N)CC(C)O1 (stereo not drawn) | 7340 nM | 27.9 µM | 2270 nM | 5.16 µM | 945 nM | 2.79 µM | 3990 nM | 15.9 µM | 1590 nM | 3.13 µM | 1590 nM | 3.94 µM | 14000 nM | 42.2 µM | 1560 nM | 2.93 µM | 14400 nM | 27.5 µM | 1560 nM | 2.91 µM
CN1CCN(CCOc2ccc(-c3cnc4c(-c5cccc(F)c5)cnn4c3)cc2)CC1 | 1720 nM | 3.45 µM | 1690 nM | 3.08 µM | 1730 nM | 3.65 µM | 1870 nM | 3.72 µM | 1790 nM | 3.51 µM | 1510 nM | 3.13 µM | 1720 nM | 3.73 µM | 1610 nM | 3.12 µM | 1760 nM | 5.7 µM | 1470 nM | 3.37 µM
CC1=C2C(=CC(C)(C)[C@@H]2O)C(=O)[C@](C)(O)C12CC2 | 40.9 nM | 0.17 µM and 0.221 µM | 15.9 nM | 0.0358 µM and 0.0269 µM | 13.7 nM | 0.0484 µM and < 0.0232 µM | 15.7 nM | 0.0607 µM and 0.0266 µM |  | 0.186 µM and 0.193 µM | 4.72 nM | 0.0469 µM and 0.123 µM | 23.3 nM | 0.1 µM and 0.0872 µM | 12.9 nM and 43.6 nM | 0.0697 µM and 0.594 µM | 18.3 nM and 10.8 nM | 0.0499 µM and 0.0553 µM | 17.4 nM | 0.0655 µM and 0.0768 µM
NCCCCC1NC(=O)C(CC(=O)O)NC(=O)CNC(=O)C(CCCN=C(N)N)NC(=O)C(N)CSSCC(C(=O)O)NC(=O)C(CC(=O)O)NC(=O)C2CCCN2C(=O)CNC1=O (stereo not drawn) | > 100000 nM | > 100 µM | > 100000 nM | > 100 µM | > 100000 nM | > 100 µM | > 100000 nM | > 100 µM | > 100000 nM | > 100 µM | > 100000 nM | > 100 µM | > 100000 nM | > 100 µM | 65400 nM | > 100 µM | > 100000 nM | > 100 µM | > 100000 nM | > 100 µM
C#CCNC(=S)N/N=C(\C)c1ccccn1 | 595 nM | > 100 µM | 617 nM | 2.7 µM | 3330 nM | > 100 µM | 208 nM | > 100 µM | 32.9 nM | > 38 µM | 79.2 nM | > 100 µM | 1250 nM | 16 µM | 396 nM | > 33.8 µM | 1070 nM | 10.1 µM | 333 nM | > 100 µM
O=C1C2=C(C(=O)c3cnccc31)C1C=CC2CC1 (stereo not drawn) | 1920 nM | 4.13 µM | 1840 nM | 3.85 µM | 1960 nM | 4.1 µM | 1820 nM | 4.02 µM | 1650 nM | 3.03 µM | 1810 nM | 3.74 µM | 2910 nM | 6.6 µM | 3570 nM | 9.33 µM | 16100 nM | 29.7 µM | 1950 nM | 3.69 µM
Cc1ncc(C(=O)Nc2ccc(CN3CCN(C)CC3)c(C(F)(F)F)c2)cc1C#Cc1ccc(N)nc1 | 504 nM | 3.85 µM | 532 nM | 1 µM | 192 nM | 1.75 µM | 600 nM | 4.13 µM | 213 nM | 1.64 µM | 903 nM | 4.89 µM | 426 nM | 2.6 µM | 104 nM | 0.533 µM | 89.8 nM | 0.294 µM | 161 nM | 0.793 µM
